The test system of assay [1] is Escherichia coli. The experiment in a line: Inhibition of Escherichia coli chorismate mutase assessed as ratio of I50 to chorismate Km.
Assay [2] is described as follows: Competitive inhibition of Bacillus subtilis chorismate mutase using varying levels of chorismic acid as substrate.
Assay [3] is described as follows: Inhibition of Mycobacterium tuberculosis chorismate mutase assessed as reduction in conversion of chorismate to prephenate using chorismate as substrate after 1 to 5 mins.
The test system of assay [4] is Mycobacterium tuberculosis. As to the kind of experiment: Inhibition of Mycobacterium tuberculosis chorismate mutase expressed in Escherichia coli BL21 (DE3) assessed as reduction in conversion of chorismate to prephenate at 30 uM using chorismic acid as substrate after 5 mins by spectrophotometric method relative to control.
A short description of assay [5]: Inhibition of Mycobacterium tuberculosis H37Rv chorismate mutase assessed as reduction in conversion of chorismate to prephenate using chorismic acid as substrate by spectrophotometric method.
Assay [6] deals with Escherichia coli. The experiment in a line: Inhibition of Escherichia coli chorismate mutase assessed as ratio of IC50 to chorismate Km.
Assay [7] in a line: Inhibition of Escherichia coli chorismate mutase.
Assay [8] in a line: Inhibition of Mycobacterium tuberculosis chorismate mutase assessed as reduction in conversion of chorismate to prephenate using chorismic acid as substrate after 5 mins by spectrophotometric method.
Assay [9] has as its system Mycobacterium tuberculosis. As to the kind of experiment: Antibacterial activity against Mycobacterium tuberculosis H37Rv after 7 days by microplate alamar blue assay. The format is functional. As to conditions: 168 h. Background: Resazurin is reduced to fluorescent resorufin, in cell work by metabolically active cells.
A short description of assay [10]: Competitive inhibition of Escherichia coli chorismate mutase using varying levels of chorismic acid as substrate by Lineweaver-burk plot method.

Values after ≈ are worked out from the molar mass of the structure shown. A value given as a limit tells only on which side of the number the result lay.

Turning to `O=C(O)C1CC2CC(C(=O)O)(C=CC2O)C1` (stereo in doubt; 17) [listing 1 of 2 here], the Ratio in [1] is 5.6. On to `O=C(O)C1CC2([N+](=O)[O-])C=CC(O)C(C2)O1` (stereo not given), for which the Ki (usually the equilibrium dissociation constant of an inhibitor or competing ligand from its target) in assay [2] was found to be 0.3 µM. As for `Cc1ccc(C(C)C)cc1O` [CARVACROL], the IC50 (commonly the midpoint of a concentration-inhibition curve) in assay [3] turned out to be 1.06 µM. With `CC(=O)c1c(C(C)(C)C)[nH]c2c(S(C)(=O)=O)cc(Cl)cc12`, the inhibition (commonly the percentage by which the read-out fell short of the control) in [4] was found to be 45%. In the case of `CCOC(=O)C1=C(C)NC(=O)N[C@H]1c1ccccc1C#CCCO`, the 50% inhibitory concentration (IC50) in [5] was 14.8 µM. For `O=C(O)C1CC2(C(=O)O)C=CC3C(C2)N13` (stereo not given), in assay [6], the Ratio was greater than 20. For `O=C(O)C12CC3CC(C(=O)O)(C1)C2CC3O` (stereo not given), the IC50 in [7] turned out to be 500 µM. Moreover, the Ratio in [1] worked out at 5.6.

For the compound `O=C1Nc2ccccc2/C1=C/c1ccc([N+](=O)[O-])cc1`, in [8], the IC50 was determined as 1.01 µM. The lowest concentration to inhibit growth in assay [9] (MIC) was 23.5 µM (≈ 6.26 µg/mL).

For the compound `O=C1Nc2ccccc2C1=O` [ISATIN], the lowest concentration to inhibit growth in assay [9] (MIC) was 340 µM (≈ 50 µg/mL). In the case of `O=C(O)C1CC2CC(C(=O)O)(C=CC2O)C1` (stereo in doubt; 16) [listing 1 of 2 here], the IC50 in assay [7] was found to be 430 µM. `O=C1OC2CC3(C(=O)O)CC1NC(C3)C2O` (stereo not given): the Ratio in assay [6] is greater than 50. On the same count and under the same terms, to `O=C1OC2CC3(C(=O)O)CC1N1C(C3)C21` (stereo not given) belongs 42; to `O=C(O)C1CC2(C(=O)O)C=CC(O)C(C2)N1` (stereo in doubt; 23), 18. Consider `O=C(O)C1CC2CC(C(=O)O)(C=CC2O)C1` (stereo in doubt; 16) [listing 2 of 2 here], for which the Ratio in assay [1] stood at 4.8. Turning to `O=C(O)C1CC2CC(C(=O)O)(C=CC2O)C1` (stereo in doubt; 17) [listing 2 of 2 here], the IC50 in assay [7] is 500 µM. In assay [10], `O=C(O)c1cccc([N+](=O)[O-])c1-c1c(C(=O)O)cccc1[N+](=O)[O-]` gave an inhibitory constant (Ki) of 13 µM. As to `O=C(O)C1CC2(C(=O)O)C=CC(O)C(C2)N1` (stereo in doubt; 22), in assay [6], the Ratio is 1.2. Still for that read-out and setting: to `O=C(O)C1CC2(C(=O)O)C=CC(O)C(C2)O1` (stereo not given) belongs 0.007.

The record behind these values is ChEMBL document CHEMBL3994661, “Mycobacterium tuberculosis chorismate mutase: A potential target for TB” (Bioorg Med Chem, 2017).
